Assay results published in US20230150924A1, “NOVEL COMPOUND HAVING CANCER METASTASIS INHIBITORY ACTIVITY, PREPARATION METHOD THEREFOR, AND PHARMACEUTICAL COMPOSITION FOR INHIBITING CANCER METASTASIS AND INVASION OR TREATING COLORECTAL CANCER, COMPRISING COMPOUND” (CELLGENTEK CO., LTD., priority 2019, published 2023).

How the values were obtained:
KAI1 promoter = KAI1 promoter luciferase reporter assay in transfected Caco2 cells; type: cell-based, human; conditions: Homo sapiens, Caco-2, 16 h, 1 μM compound, 16 hours, transfected Caco2 cells, luciferase activity relative to DMSO control (=1); read-out: Relative KAI promoter activity
Protocol: Experiments were conducted to evaluate the metastasis-related promoter activity-increasing effects of the compounds according to the present invention. Specifically, the KAI1 promoter reporter vector was used. In this case, the pRL-TK vector, a vector expressing renilla luciferase, was used as an internal control indicating the transfection efficiency in each transfected well.
First, 24 hours before transfection, 2×10^6 human colon cancer cell line, Caco2) cells were cultured in 10 ml of DMEM containing 10% FBS and 1% penicillin/streptomycin on a 100-mm-diameter plate, and then transformed with 5 μg of a pRL-TK vector mixture containing a transfection reagent and the KAI1 promoter, and then cultured in a 5% CO2 incubator at 37° C. for 48 hours. Thereafter, the adherent cells were detached using trypsin and counted using a hemacytometer, and then 5×10^3 transfected Caco2 cells in 100 μl of DMEM containing 10% FBS and 1% penicillin/streptomycin were seeded into each well of a 96-well plate and cultured in a 5% CO2 incubator at 37° C. for 24 hours. Next, 1 μM of each of the 305 compounds prepared in Examples 1 to 305 was added to each well, and after 16 hours, 100 μl of a lysis buffer for analysis containing a luciferase substrate was added, and the cells were lysed with stirring for 20 minutes. After completion of lysis, the cells were measured for luciferase activity using a luciferase reporter assay system (Promega, USA). […] In addition, data were analyzed at a significance level of p<0.05 by one-way ANOVA (Tukey's HSD), and SPSS 17.0 (Chicago, USA) statistical program was used. In Table 14 to 20, PHA is the PHA-665752, and KIT is KITENIN.

[1] = system: invasion of colorectal cancer cells; assay: In vivo relative invation (invasion; EV and KITENIN controls, no method described); conditions: relative to EV (=1); KIT = KITENIN

Structure (SMILES): CCOC(=O)N1CCN(Cc2ccc(C(=O)NCC(=O)c3ccccc3)cc2)CC1 [Example 277, ethyl 4-(4-((2-oxo-2-phenylethyl)carbamoyl)benzyl)piperazine-1-carboxylate]
- fold induction at 1 µM (KAI1 promoter): 1.3
- In vivo relative invation [1]: 1.126

Structure (SMILES): O=C(CNC(=O)C1CC1)c1ccc(Cl)cc1 [Example 56, N-(2-(4-chlorophenyl)-2-oxoethyl)cyclopropanecarboxamide]
- fold induction at 1 µM (KAI1 promoter): 0.92
- In vivo relative invation [1]: 1.249

Structure (SMILES): COc1cccc(C(=O)CNS(=O)(=O)c2ccccc2)c1 [Example 129, N-(2-(3-methoxyphenyl)-2-oxoethyl)benzenesulfonamide]
- fold induction at 1 µM (KAI1 promoter): 1.3
- In vivo relative invation [1]: 1.298

Structure (SMILES): Cc1cccc(C(=O)N2CCC(Oc3ccccc3C(=O)NCC(=O)c3ccccc3)CC2)c1 [Example 163, 2-((1-(3-methylbenzoyl)piperidin-4-yl)oxy)-N-(2-oxo-2-phenylethyl)benzamide]
- fold induction at 1 µM (KAI1 promoter): 1.1
- In vivo relative invation [1]: 1.163

Structure (SMILES): O=C(CNC(=O)c1ccc(Cl)cc1)c1ccc(Cl)cc1 [Example 87, 4-chloro-N-(2-(4-chlorophenyl)-2-oxoethyl)benzamide]
- fold induction at 1 µM (KAI1 promoter): 0.91
- In vivo relative invation [1]: 1.218

Structure (SMILES): O=C(CNS(=O)(=O)c1cccc([N+](=O)[O-])c1)c1ccc(Cl)cc1 [Example 63, N-(2-(4-chlorophenyl)-2-oxoethyl)-3-nitrobenzenesulfonamide]
- fold induction at 1 µM (KAI1 promoter): 0.7
- In vivo relative invation [1]: 1.102

Structure (SMILES): O=C(CNC(=O)c1ccc(-c2ccccc2)cc1)c1ccccc1 [Example 43, N-(2-oxo-2-phenylethyl)-[1,1′-biphenyl]-4-carboxamide]
- fold induction at 1 µM (KAI1 promoter): 1.91
- In vivo relative invation [1]: 0.9774

Structure (SMILES): O=C(COc1ccccc1C(=O)NCC(=O)c1ccccc1)Nc1ccc2c(c1)CCC2 [Example 219, 2-(2-((2,3-dihydro-1H-inden-5-yl)amino)-2-oxoethoxy)-N-(2-oxo-2-phenylethyl)benzamide]
- fold induction at 1 µM (KAI1 promoter): 1.27
- In vivo relative invation [1]: 1.145

Structure (SMILES): CN(C)c1ccc(C(=O)CNS(=O)(=O)c2ccc(F)cc2)cc1 [Example 107, N-(2-(4-(dimethylamino)phenyl)-2-oxoethyl)-4-fluorobenzenesulfonamide]
- fold induction at 1 µM (KAI1 promoter): 2.07
- In vivo relative invation [1]: 0.9868

Structure (SMILES): O=C(CCc1ccccc1)NCC(=O)c1ccc(Cl)cc1 [Example 49, N-(2-(4-chlorophenyl)-2-oxoethyl)-3-phenylpropanamide]
- fold induction at 1 µM (KAI1 promoter): 0.7
- In vivo relative invation [1]: 1.197

Structure (SMILES): O=C(CNC(=O)c1ccccc1OC1CCN(C(=O)c2cccc(Cl)c2Cl)CC1)c1ccccc1 [Example 198, 2-((1-(2,3-dichlorobenzoyl)piperidin-4-yl)oxy)-N-(2-oxo-2-phenylethyl)benzamide]
- fold induction at 1 µM (KAI1 promoter): 0.87
- In vivo relative invation [1]: 1.15

Structure (SMILES): O=C(COc1ccccc1C(=O)NCC(=O)c1ccccc1)Nc1ccc(Oc2ccccc2)cc1 [Example 221, 2-(2-oxo-2-((4-phenoxyphenyl)amino)ethoxy)-N-(2-oxo-2-phenylethyl)benzamide]
- fold induction at 1 µM (KAI1 promoter): 0.961
- In vivo relative invation [1]: 1.322

Structure (SMILES): CCCCN(CC)Cc1cccc(C(=O)NCC(=O)c2cccc(OC)c2)c1 [Example 290, 3-((butyl (ethyl)amino)methyl)-N-(2-(3-methoxyphenyl)-2-oxoethyl)benzamide]
- fold induction at 1 µM (KAI1 promoter): 1.23
- In vivo relative invation [1]: 0.9234

Structure (SMILES): CN(C)c1ccc(C(=O)CNC(=O)c2ccccc2F)cc1 [Example 90, N-(2-(4-(dimethylamino)phenyl)-2-oxoethyl)-2-fluorobenzamide]
- fold induction at 1 µM (KAI1 promoter): 1.88
- In vivo relative invation [1]: 1.124

Structure (SMILES): C=CCNC(=O)COc1ccccc1C(=O)NCC(=O)c1ccccc1 [Example 203, 2-(2-(allylamino)-2-oxoethoxy)-N-(2-oxo-2-phenylethyl)benzamide]
- fold induction at 1 µM (KAI1 promoter): 1.05
- In vivo relative invation [1]: 1.178

Structure (SMILES): O=C(CNC(=O)c1ccccc1OC1CCN(C(=O)c2ccccc2Cl)CC1)c1ccccc1 [Example 156, 2-((1-(2-chlorobenzoyl)piperidin-4-yl)oxy)-N-(2-oxo-2-phenylethyl)benzamide]
- fold induction at 1 µM (KAI1 promoter): 0.99
- In vivo relative invation [1]: 1.158

Structure (SMILES): C#CN(C)Cc1cccc(C(=O)NCC(=O)c2ccccc2)c1 [Example 251, 3-((ethynyl(methyl)amino)methyl)-N-(2-oxo-2-phenylethyl)benzamide]
- fold induction at 1 µM (KAI1 promoter): 2.37
- In vivo relative invation [1]: 1.197

Structure (SMILES): COc1cccc(C(=O)CNC(=O)C2CCC2)c1 [Example 126, N-(2-(3-methoxyphenyl)-2-oxoethyl)cyclobutanecarboxamide]
- fold induction at 1 µM (KAI1 promoter): 1.08
- In vivo relative invation [1]: 1.352

Structure (SMILES): COCc1ccccc1C(=O)NCC(=O)c1ccc(Cl)cc1 [Example 59, N-(2-(4-chlorophenyl)-2-oxoethyl)-2-(methoxymethyl)benzamide]
- fold induction at 1 µM (KAI1 promoter): 1.56
- In vivo relative invation [1]: 1.007

Structure (SMILES): O=C(CNC(=O)c1ccc(CN(C2CCCCC2)C2CCCCC2)cc1)c1ccccc1 [Example 270, 4-((dicyclohexylamino)methyl)-N-(2-oxo-2-phenylethyl)benzamide]
- fold induction at 1 µM (KAI1 promoter): 1.47
- In vivo relative invation [1]: 1.238

Structure (SMILES): COc1cccc(C(=O)CNC(=O)c2cccc(CN3CCc4ccccc4C3)c2)c1 [Example 279, 3-((3,4-dihydroisoquinolin-2(1H)-yl)methyl)-N-(2-(3-methoxyphenyl)-2-oxoethyl)benzamide]
- fold induction at 1 µM (KAI1 promoter): 2.28
- In vivo relative invation [1]: 1.187

Structure (SMILES): CCC(=O)NCC(=O)c1cccnc1 [Example 136, N-(2-oxo-2-(pyridin-3-yl)ethyl) propionamide]
- fold induction at 1 µM (KAI1 promoter): 1.17
- In vivo relative invation [1]: 1.297

Structure (SMILES): O=C(CNC(=O)c1cc(C(F)(F)F)cc(C(F)(F)F)c1)c1ccccc1 [Example 29, N-(2-oxo-2-phenylethyl)-3,5-bis(trifluoromethyl)benzamide]
- fold induction at 1 µM (KAI1 promoter): 0.9
- In vivo relative invation [1]: 1.026

Structure (SMILES): COc1ccc(C(=O)NCC(=O)c2ccc(N3CCOCC3)cc2)cc1 [Example 140, 4-methoxy-N-(2-(4-morpholinophenyl)-2-oxoethyl)benzamide]
- fold induction at 1 µM (KAI1 promoter): 1.15
- In vivo relative invation [1]: 1.553

Structure (SMILES): O=C(CNS(=O)(=O)c1ccccc1)c1ccc(N2CCOCC2)cc1 [Example 148, N-(2-(4-morpholinophenyl)-2-oxoethyl)benzenesulfonamide]
- fold induction at 1 µM (KAI1 promoter): 1.44
- In vivo relative invation [1]: 1.844

Structure (SMILES): CN1CCN(Cc2cccc(C(=O)NCC(=O)c3ccccc3)c2)CC1 [Example 253, 3-((4-methylpiperazin-1-yl)methyl)-N-(2-oxo-2-phenylethyl)benzamide]
- fold induction at 1 µM (KAI1 promoter): 0.963
- In vivo relative invation [1]: 1.421

Structure (SMILES): O=C(CNC(=O)C1CCC1)c1ccc(N2CCOCC2)cc1 [Example 144, N-(2-(4-morpholinophenyl)-2-oxoethyl)cyclobutanecarboxamide]
- fold induction at 1 µM (KAI1 promoter): 1.08
- In vivo relative invation [1]: 1.284

Structure (SMILES): CN(C)c1ccc(C(=O)CNC(=O)c2ccc(F)cc2Cl)cc1 [Example 115, 2-chloro-N-(2-(4-(dimethylamino)phenyl)-2-oxoethyl)-4-fluorobenzamide]
- fold induction at 1 µM (KAI1 promoter): 2.04
- In vivo relative invation [1]: 1.209

Structure (SMILES): CC(Oc1ccccc1)C(=O)N1CCC(Oc2ccccc2C(=O)NCC(=O)c2ccccc2)CC1 (stereo not shown) [Example 152, N-(2-oxo-2-phenylethyl)-2-((1-(2-phenoxypropanoyl)piperidin-4-yl)oxy)benzamide]
- fold induction at 1 µM (KAI1 promoter): 1.08
- In vivo relative invation [1]: 1.16

Structure (SMILES): O=C(CNC(=O)c1ccc(F)cc1F)c1ccccc1 [Example 22, 2,4-difluoro-N-(2-oxo-2-phenylethyl)benzamide]
- fold induction at 1 µM (KAI1 promoter): 1.56
- In vivo relative invation [1]: 1.163

Structure (SMILES): COCc1ccccc1C(=O)N1CCC(Oc2ccccc2C(=O)NCC(=O)c2ccccc2)CC1 [Example 169, 2-((1-(2-(methoxymethyl)benzoyl)piperidin-4-yl)oxy)-N-(2-oxo-2-phenylethyl)benzamide]
- fold induction at 1 µM (KAI1 promoter): 0.99
- In vivo relative invation [1]: 1.186

Structure (SMILES): O=C(CNC(=O)c1ccccc1OC1CCN(C(=O)c2ccco2)CC1)c1ccccc1 [Example 155, 2-((1-(furan-2-carbonyl)piperidin-4-yl)oxy)-N-(2-oxo-2-phenylethyl)benzamide]
- fold induction at 1 µM (KAI1 promoter): 0.99
- In vivo relative invation [1]: 1.151

Structure (SMILES): CN(C)c1ccc(C(=O)CNC(=O)c2cccs2)cc1 [Example 101, N-(2-(4-(dimethylamino)phenyl)-2-oxoethyl)thiophene-2-carboxamide]
- fold induction at 1 µM (KAI1 promoter): 3.04
- In vivo relative invation [1]: 0.8815

Structure (SMILES): CCC(=O)NCC(=O)c1cccc(OC)c1 [Example 124, N-(2-(3-methoxyphenyl)-2-oxoethyl) propionamide]
- fold induction at 1 µM (KAI1 promoter): 1.04
- In vivo relative invation [1]: 1.266

Structure (SMILES): O=C(CNC(=O)c1ccccc1F)c1ccc(N2CCOCC2)cc1 [Example 137, 2-fluoro-N-(2-(4-morpholinophenyl)-2-oxoethyl)benzamide]
- fold induction at 1 µM (KAI1 promoter): 1.19
- In vivo relative invation [1]: 1.231
